# Results taken from patent EP4741395A1, “NOVEL COMPOUND SENSITIVE TO NITROGEN MONOXIDE AND PHARMACEUTICAL COMPOSITION COMPRISING SAME” (Omniamed Co. Ltd, priority 2023, dated 2025).
# Assays:
# Raw 264.7 cell line = test: NO scavenging activity in LPS-treated immune cells (Griess reagent); format: cell-based; details: Mus musculus, RAW264.7, Raw 264.7, LPS 500 ng/mL, 24 hours, read-out: NO Scavenging Activity (%) (Mean±SD)
# splenocytes = test: Inhibitory activity on cell proliferation in splenocytes (CCK-8 analysis); format: cell-based, C57BL/6 mouse; details: Mus musculus, Splenocyte, Concanavalin A 5 µg/mL, 72 hours, read-out: Inhibitory Activity on Cell Proliferation (%) (Mean±SD)
# JAK 2 = target: T1, JAK 2 (Homo sapiens, UniProt O60674); test: JAK Human TK kinase enzymatic radiometric assay (Eurofins), JAK 2; format: biochemical; parameters: unit not given here; details: value close to 100 indicates low JAK activity of the compound
# T1 construct: purchased Eurofins Scientific (assay service)
# From the text: (§1) For the compounds of the Examples, JAK activity of each of the compounds was verified using the JAK Human TK Kinase Enzymatic Radiometric Kinase Profiler Assay service provided by Eurofins Scientific.
# (§2) The activity was verified after inducing a reaction at the JAK 1, 2 and 3 active sites using radioactively labeled ATP.
# JAK 3 = target: T2, JAK 3 (Homo sapiens, UniProt P52333); test: JAK Human TK kinase enzymatic radiometric assay (Eurofins), JAK 3; format: biochemical; parameters: unit not given here; details: value close to 100 indicates low JAK activity of the compound
# T2 construct: purchased Eurofins Scientific (assay service)
# T2 sequence (P52333 1-1124): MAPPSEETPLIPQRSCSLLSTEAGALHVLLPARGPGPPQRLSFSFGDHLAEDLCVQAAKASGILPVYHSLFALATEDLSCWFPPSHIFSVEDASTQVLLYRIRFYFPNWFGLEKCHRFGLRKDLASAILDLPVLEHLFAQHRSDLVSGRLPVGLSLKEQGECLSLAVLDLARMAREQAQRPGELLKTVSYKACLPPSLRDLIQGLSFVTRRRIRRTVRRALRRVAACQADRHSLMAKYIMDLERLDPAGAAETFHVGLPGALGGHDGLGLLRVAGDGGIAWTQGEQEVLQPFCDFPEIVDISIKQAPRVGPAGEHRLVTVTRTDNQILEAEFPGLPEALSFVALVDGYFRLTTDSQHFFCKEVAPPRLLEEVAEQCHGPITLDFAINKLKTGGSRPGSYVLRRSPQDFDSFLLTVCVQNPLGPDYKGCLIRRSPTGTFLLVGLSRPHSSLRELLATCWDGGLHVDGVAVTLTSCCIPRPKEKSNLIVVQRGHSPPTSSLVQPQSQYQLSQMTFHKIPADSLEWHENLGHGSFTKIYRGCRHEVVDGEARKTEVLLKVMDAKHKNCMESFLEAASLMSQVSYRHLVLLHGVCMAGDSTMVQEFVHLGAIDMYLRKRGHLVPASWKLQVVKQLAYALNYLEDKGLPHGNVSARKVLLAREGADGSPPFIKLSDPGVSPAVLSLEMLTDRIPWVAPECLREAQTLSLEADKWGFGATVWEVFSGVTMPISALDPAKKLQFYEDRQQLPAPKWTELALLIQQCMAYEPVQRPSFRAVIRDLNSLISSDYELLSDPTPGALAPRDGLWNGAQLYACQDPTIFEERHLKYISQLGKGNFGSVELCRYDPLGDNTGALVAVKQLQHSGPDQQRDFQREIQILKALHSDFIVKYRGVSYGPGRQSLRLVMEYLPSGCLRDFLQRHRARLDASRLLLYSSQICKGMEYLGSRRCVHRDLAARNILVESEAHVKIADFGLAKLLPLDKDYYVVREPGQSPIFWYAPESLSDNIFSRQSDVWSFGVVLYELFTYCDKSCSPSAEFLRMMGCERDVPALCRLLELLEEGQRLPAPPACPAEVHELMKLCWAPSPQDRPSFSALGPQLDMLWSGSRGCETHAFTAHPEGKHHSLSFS
# From the text: as §1, §2
# [1] = Efficacy on collagen-induced rheumatoid arthritis (arthritis score); format: in vivo, DBA/1 male mice
# Experimental: (§3) The experimental animals were 30 8-week-old DBA/1 male mice. […] The number of normal mice was set to five in order to minimize the number of experimental animals. The group administered with Compound (1) consisted of 5 to 6 mice, a minimal number required to obtain statistically meaningful data given the limited amount of the drug.
# (§4) In order to establish a rheumatoid arthritis model, 100 µL of a mixture solution in which 2 mg/mL of chick type II collagen and 1 mg/mL of Complete Freund's Adjuvant (CFA) were mixed in a ratio of 1:1 was administered intradermally to each of the mouse tails. After 19 days, 100 µL of an emulsion in which 2 mg/mL of chick type II collagen and Incomplete Freund's Adjuvant (IFA) were mixed in a ratio of 1:1 was administered intradermally to each of the mouse tails.
# The test substances of Table 23 were administered orally every day according to the drug dosing period and dosing frequency. As for the rheumatoid arthritis score (arthritis score), the score of each of the four paws was quantified according to the criteria shown in the following Table 24, and the individual scores were summed to generate the final score.
# as §3, with “31” for “30”, “(11)” for “(1)”, “5” for “5 to 6”, “drug. Each of the remaining groups consisted of 7 mice, with two extra mice added to account for experimental error.” for “drug.”
# as §4
# Oral administration was conducted daily according to the dose, dosing frequency and dosing period of Table 25. Based on the criteria shown in Table 24, rheumatoid arthritis score for the four paws were quantified and summed to generate the score.
# JAK 1 = JAK 1 (Homo sapiens, UniProt P23458); test: JAK Human TK kinase enzymatic radiometric assay (Eurofins), JAK 1; details: value close to 100 indicates low JAK activity of the compound
# JAK 1, sequence (P23458 whole entry): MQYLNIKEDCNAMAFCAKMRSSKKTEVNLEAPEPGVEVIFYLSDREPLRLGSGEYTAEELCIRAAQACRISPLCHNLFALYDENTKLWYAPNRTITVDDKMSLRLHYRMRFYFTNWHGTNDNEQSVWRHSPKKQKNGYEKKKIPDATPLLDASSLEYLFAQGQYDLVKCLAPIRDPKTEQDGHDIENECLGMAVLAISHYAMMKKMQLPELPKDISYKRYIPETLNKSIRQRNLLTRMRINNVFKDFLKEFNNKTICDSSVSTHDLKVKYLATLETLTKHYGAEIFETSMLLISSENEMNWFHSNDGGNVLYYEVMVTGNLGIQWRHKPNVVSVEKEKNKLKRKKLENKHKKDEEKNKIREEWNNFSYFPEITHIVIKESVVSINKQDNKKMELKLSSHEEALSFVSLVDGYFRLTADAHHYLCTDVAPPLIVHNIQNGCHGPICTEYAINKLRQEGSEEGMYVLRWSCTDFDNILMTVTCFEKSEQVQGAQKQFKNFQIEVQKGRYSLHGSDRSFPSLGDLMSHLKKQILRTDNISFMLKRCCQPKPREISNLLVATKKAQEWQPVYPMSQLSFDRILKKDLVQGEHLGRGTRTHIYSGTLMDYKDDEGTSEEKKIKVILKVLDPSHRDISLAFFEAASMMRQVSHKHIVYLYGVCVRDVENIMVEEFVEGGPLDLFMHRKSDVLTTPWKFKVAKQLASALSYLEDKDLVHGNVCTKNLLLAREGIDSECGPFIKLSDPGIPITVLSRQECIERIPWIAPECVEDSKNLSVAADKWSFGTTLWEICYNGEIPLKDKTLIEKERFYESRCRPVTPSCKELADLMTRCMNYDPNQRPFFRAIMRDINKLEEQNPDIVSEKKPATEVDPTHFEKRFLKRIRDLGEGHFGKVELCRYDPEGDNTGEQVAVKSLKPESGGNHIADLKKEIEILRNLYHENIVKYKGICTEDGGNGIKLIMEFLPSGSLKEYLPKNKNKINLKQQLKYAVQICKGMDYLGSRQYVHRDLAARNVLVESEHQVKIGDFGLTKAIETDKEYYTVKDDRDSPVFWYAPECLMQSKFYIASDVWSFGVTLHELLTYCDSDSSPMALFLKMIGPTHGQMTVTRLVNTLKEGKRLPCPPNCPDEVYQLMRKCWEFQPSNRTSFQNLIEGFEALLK
# T1 sequence (O60674 whole entry): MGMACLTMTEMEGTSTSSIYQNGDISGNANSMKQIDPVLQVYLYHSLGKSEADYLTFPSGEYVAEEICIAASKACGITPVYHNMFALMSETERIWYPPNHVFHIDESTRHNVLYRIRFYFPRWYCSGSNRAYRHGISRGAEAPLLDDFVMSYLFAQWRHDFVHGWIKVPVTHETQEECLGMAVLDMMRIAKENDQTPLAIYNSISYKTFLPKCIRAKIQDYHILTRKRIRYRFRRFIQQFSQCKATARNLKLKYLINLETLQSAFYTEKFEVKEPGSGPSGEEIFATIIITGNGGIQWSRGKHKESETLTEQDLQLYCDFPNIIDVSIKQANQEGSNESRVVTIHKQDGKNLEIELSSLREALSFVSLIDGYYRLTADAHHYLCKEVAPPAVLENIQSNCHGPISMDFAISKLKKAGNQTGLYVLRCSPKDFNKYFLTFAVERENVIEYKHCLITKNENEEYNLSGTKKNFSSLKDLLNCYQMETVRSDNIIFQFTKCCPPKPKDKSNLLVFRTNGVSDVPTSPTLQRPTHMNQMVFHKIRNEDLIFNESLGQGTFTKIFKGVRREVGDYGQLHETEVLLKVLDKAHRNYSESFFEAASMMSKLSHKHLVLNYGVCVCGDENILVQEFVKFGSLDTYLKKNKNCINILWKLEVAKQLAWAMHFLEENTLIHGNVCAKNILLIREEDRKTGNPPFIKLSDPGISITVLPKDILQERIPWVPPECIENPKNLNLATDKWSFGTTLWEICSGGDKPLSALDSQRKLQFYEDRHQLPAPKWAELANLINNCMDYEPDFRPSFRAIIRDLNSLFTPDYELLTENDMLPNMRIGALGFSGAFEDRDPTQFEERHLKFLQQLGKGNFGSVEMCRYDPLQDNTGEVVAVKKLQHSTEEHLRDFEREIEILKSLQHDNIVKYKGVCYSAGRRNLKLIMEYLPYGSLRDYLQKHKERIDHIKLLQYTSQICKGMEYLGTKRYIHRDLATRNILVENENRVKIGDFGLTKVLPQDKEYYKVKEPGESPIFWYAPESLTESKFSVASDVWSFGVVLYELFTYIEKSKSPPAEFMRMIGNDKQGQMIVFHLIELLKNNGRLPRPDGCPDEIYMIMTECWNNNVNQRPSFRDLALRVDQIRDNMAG
structure (smiles),measurement,setting,value
"C[C@@H]1CCN(C(=O)CC#N)C[C@@H]1N(C)c1ncnc2c1ccn2C(=O)Nc1ccccc1N [Example 1, N-(2-aminophenyl)-4-(((3R,4R)-1-(2-cyanoacetyl)-4-methylpiperidin-3-yl) (methyl)amino)-7H-pyrrolo[2,3-d]pyrimidine-7-carboxamide]",activity at 10 µM,Raw 264.7 cell line,77.4 ± 0.52%
same,inhibition at 10 µM,splenocytes,55 ± 8.48%
same,JAK 2 Activity,JAK 2; 0.1 nM,100
same,JAK 2 Activity,JAK 2; 1 nM,92
same,JAK 2 Activity,JAK 2; 10 nM,69
same,JAK 2 Activity,JAK 2; 100 nM,16
same,JAK 3 Activity,JAK 3; 0.1 nM,94
same,JAK 3 Activity,JAK 3; 1 nM,95
same,JAK 3 Activity,JAK 3; 10 nM,55
same,JAK 3 Activity,JAK 3; 100 nM,16
same,alleviation of rheumatoid arthritis compared with tofacitinib,"[1]; 30 mg/kg and 60 mg/kg oral once daily, entire period of the experiment",comparable to or higher than 40 mg/kg of tofacitinib
same,average rheumatoid arthritis score compared with tofacitinib,"[1]; 30 mg/kg oral once daily, FIG. 6",comparable to that of the group administered with 40 mg/kg of tofacitinib
same,rheumatoid arthritis-alleviating efficacy (arthritis score),"[1]; 30 mg/kg oral once daily, day 42 to day 47 after disease induction, FIG. 6",no statistically significant alleviating efficacy was observed
same,rheumatoid arthritis-alleviating efficacy (arthritis score),"[1]; 30 mg/kg oral once daily, day 49 to the end of the experiment (p<0.05), FIG. 6",statistically significant alleviating efficacy was observed again
same,rheumatoid arthritis-alleviating efficacy (arthritis score),"[1]; 30 mg/kg oral once daily, from day 35 after disease induction (p<0.05), FIG. 6",Alleviating efficacy was observed
same,rheumatoid arthritis-alleviating efficacy compared with tofacitinib,"[1]; 60 mg/kg oral once daily, from day 33 after disease induction (p<0.01) to the end, FIG. 6",comparable to or higher than that of the group administered with 40 mg/kg of tofacitinib
same,JAK 1 Activity,JAK 1; 0.1 nM,101
same,JAK 1 Activity,JAK 1; 1 nM,102
same,JAK 1 Activity,JAK 1; 10 nM,45
same,JAK 1 Activity,JAK 1; 100 nM,7
